Laboratory results reported in patent US20240217960A1, “TRIAZINE DERIVATIVE AS COVALENT INHIBITORS OF PI3K” (UNIVERSITÄT BASEL, priority 2021, published 2024).

Target: p110α (PI3Kα) (Homo sapiens, UniProt P42336)
Experiment: Determination of kinetic constants (kinact, Ki) for p110α by LanthaScreen Technology
Format: binding
Conditions: dissociation constant of the first reversible binding; global fitting with KinTek; read-out: Ki PI3Kα

Chain of p110α (PI3Kα) (P42336 whole entry): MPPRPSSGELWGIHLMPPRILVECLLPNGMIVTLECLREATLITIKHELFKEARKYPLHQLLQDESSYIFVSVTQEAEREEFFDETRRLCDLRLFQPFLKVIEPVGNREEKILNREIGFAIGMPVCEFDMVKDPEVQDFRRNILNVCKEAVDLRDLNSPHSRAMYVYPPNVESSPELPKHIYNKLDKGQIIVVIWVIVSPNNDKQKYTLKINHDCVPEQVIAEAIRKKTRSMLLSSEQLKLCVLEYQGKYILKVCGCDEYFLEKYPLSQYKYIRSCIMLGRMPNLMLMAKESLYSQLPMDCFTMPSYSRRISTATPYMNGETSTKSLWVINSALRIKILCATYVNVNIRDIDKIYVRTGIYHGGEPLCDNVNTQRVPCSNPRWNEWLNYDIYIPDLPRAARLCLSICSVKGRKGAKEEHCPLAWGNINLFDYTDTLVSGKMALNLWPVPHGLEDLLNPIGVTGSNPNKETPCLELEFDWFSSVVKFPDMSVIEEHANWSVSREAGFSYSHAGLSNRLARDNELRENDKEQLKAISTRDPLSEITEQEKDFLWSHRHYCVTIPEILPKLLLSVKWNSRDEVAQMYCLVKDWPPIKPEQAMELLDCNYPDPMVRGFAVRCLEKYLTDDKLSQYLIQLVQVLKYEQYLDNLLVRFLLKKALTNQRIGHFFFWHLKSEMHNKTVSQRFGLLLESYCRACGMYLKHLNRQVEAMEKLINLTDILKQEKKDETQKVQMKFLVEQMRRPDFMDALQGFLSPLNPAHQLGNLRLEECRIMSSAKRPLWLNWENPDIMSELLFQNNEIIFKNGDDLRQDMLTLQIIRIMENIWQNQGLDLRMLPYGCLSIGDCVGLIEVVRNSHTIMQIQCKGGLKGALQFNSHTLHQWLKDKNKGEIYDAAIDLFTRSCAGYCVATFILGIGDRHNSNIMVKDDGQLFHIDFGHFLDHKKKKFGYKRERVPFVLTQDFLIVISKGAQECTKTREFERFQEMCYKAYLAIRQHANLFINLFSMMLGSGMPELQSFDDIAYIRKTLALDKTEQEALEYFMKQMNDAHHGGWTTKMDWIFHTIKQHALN
Chain of p110α (PI3Kα) (P27986 whole entry partner): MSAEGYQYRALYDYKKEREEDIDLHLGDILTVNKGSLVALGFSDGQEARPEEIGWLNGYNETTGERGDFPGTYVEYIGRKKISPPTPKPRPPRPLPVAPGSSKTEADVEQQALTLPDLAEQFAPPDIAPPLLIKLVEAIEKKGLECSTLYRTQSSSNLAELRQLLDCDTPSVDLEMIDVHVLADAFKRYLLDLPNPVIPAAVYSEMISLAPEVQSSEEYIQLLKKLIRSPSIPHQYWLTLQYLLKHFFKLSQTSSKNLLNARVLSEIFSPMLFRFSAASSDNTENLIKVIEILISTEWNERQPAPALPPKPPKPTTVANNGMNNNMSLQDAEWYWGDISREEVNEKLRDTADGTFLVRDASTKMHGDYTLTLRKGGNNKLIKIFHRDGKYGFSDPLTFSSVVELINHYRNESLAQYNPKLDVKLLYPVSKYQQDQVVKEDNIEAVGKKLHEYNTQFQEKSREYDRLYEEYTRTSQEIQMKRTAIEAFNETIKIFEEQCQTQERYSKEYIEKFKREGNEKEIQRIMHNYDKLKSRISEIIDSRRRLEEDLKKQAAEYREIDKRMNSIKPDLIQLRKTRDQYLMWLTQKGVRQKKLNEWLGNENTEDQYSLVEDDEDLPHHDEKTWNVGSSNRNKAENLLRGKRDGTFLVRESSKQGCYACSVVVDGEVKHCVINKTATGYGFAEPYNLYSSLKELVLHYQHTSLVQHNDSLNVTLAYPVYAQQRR

Row | Compound | Ki
1 | CCC(=O)N1CCC(C(=O)NCC(=O)N2CCN(c3nc(-c4cnc(N)nc4C(F)F)nc(N4CCOCC4)n3)CC2)CC1 [Compound 44, N-(2-(4-(4-(2-amino-4-(difluoromethyl)pyrimidin-5-yl)-6-morpholino-1,3,5-triazin-2-yl)piperazin-1-yl)-2-oxoethyl)-1-propionylpiperidine-4-carboxamide] | 2.55 nM

System: pSer473 of PKB/Akt in SKOV3 cells
Experiment: In Cell Western cellular PI3K signaling and IC50 determination
Format: cell-based
Conditions: Homo sapiens, SK-OV-3; SKOV3 cells; 2 or 3 independent measurements; read-out: IC50 pPKB (S473) SKOV3
Procedure: Protein phosphorylation was detected as follows: pSer473 of PKB/Akt with rabbit polyclonal antibody from Cell Signaling Technology (CST) (#4058) by In-Cell Western assays, where 1.2×10^4 SKOV3 cells/well in 96-well plates were plated (Cell Carrier, PerkinElmer) for 24 hours (37° C., 5% CO2), as described in Ref. ^25.

Row | Compound | IC50
2 | CCC(=O)N1CCC(C(=O)NCC(=O)N2CCN(c3nc(-c4cnc(N)nc4C(F)F)nc(N4CCOCC4)n3)CC2)CC1 [Compound 44, N-(2-(4-(4-(2-amino-4-(difluoromethyl)pyrimidin-5-yl)-6-morpholino-1,3,5-triazin-2-yl)piperazin-1-yl)-2-oxoethyl)-1-propionylpiperidine-4-carboxamide] | 200 nM
3 | CN(C)C/C=C/C(=O)N1CCC(C(=O)N(C)CC(=O)N2CCN(c3nc(-c4cnc(N)nc4C(F)F)nc(N4CCOCC4)n3)CC2)CC1 [Compound 56, (E)-N-(2-(4-(4-(2-amino-4-(difluoromethyl)pyrimidin-5-yl)-6-morpholino-1,3,5-triazin-2-yl)piperazin-1-yl)-2-oxoethyl)-1-(4-(dimethylamino)but-2-enoyl)-N-methylpiperidine-4-carboxamide] | 891 nM
4 | CC(C)CC(=O)CCCC(=O)N1CCC(C(=O)N2CCN(c3nc(-c4cnc(N)nc4C(F)F)nc(N4CCOCC4)n3)CC2)CC1 [Compound 70, 1-(4-(4-(4-(2-amino-4-(difluoromethyl)pyrimidin-5-yl)-6-morpholino-1,3,5-triazin-2-yl)piperazine-1-carbonyl)piperidin-1-yl)-7-methyloctane-1,5-dione] | 63 nM
5 | CC(C)=CC(=O)CCCC(=O)N1CCC(C(=O)N2CCN(c3nc(-c4cnc(N)cc4C(F)(F)F)nc(N4CCOCC4)n3)CC2)CC1 [Compound 71, 1-(4-(4-(4-(6-amino-4-(trifluoromethyl)pyridin-3-yl)-6-morpholino-1,3,5-triazin-2-yl)piperazine-1-carbonyl)piperidin-1-yl)-7-methyloct-6-ene-1,5-dione] | 112 nM
6 | CC(C)=CC(=O)CCC(=O)N1CCC(CN2CCN(c3nc(-c4cnc(N)nc4C(F)F)nc(N4CCOCC4)n3)CC2)CC1 [Compound 72, 1-(4-((4-(4-(2-amino-4-(difluoromethyl)pyrimidin-5-yl)-6-morpholino-1,3,5-triazin-2-yl)piperazin-1-yl)methyl)piperidin-1-yl)-6-methylhept-5-ene-1,4-dione] | 46 nM
7 | CC(C)=CC(=O)CCCC(=O)N1CCC(CN2CCN(c3nc(-c4cnc(N)cc4C(F)(F)F)nc(N4CCOCC4)n3)CC2)CC1 [Compound 78, 1-(4-((4-(4-(6-amino-4-(trifluoromethyl)pyridin-3-yl)-6-morpholino-1,3,5-triazin-2-yl)piperazin-1-yl)methyl)piperidin-1-yl)-7-methyloct-6-ene-1,5-dione] | 177 nM
8 | CC(C)=CC(=O)CCCC(=O)N1CC[C@H](C(=O)N2CCN(c3nc(-c4cnc(N)cc4C(F)(F)F)nc(N4CCOCC4)n3)CC2)C1 [Compound 85, (S)-1-(3-(4-(4-(6-amino-4-(trifluoromethyl)pyridin-3-yl)-6-morpholino-1,3,5-triazin-2-yl)piperazine-1-carbonyl)pyrrolidin-1-yl)-7-methyloct-6-ene-1,5-dione] | 73 nM
9 | CC(C)=CC(=O)CCCC(=O)N1CC[C@@H](C(=O)N2CCN(c3nc(-c4cnc(N)cc4C(F)(F)F)nc(N4CCOCC4)n3)CC2)C1 [Compound 90, (R)-1-(3-(4-(4-(6-amino-4-(trifluoromethyl)pyridin-3-yl)-6-morpholino-1,3,5-triazin-2-yl)piperazine-1-carbonyl)pyrrolidin-1-yl)-7-methyloct-6-ene-1,5-dione] | 93 nM
10 | CC(C)=CC(=O)CCC(=O)N1CC(C(=O)N2CCN(c3nc(-c4cnc(N)nc4C(F)F)nc(N4CCOCC4)n3)CC2)C1 [Compound 92, 1-(3-(4-(4-(2-amino-4-(difluoromethyl)pyrimidin-5-yl)-6-morpholino-1,3,5-triazin-2-yl)piperazine-1-carbonyl)azetidin-1-yl)-6-methylhept-5-ene-1,4-dione] | 34 nM
11 | CC(C)=CC(=O)CCC(=O)N1CC(CN2CCN(c3nc(-c4cnc(N)nc4C(F)F)nc(N4CCOCC4)n3)CC2)C1 [Compound 95, 1-(3-((4-(4-(2-amino-4-(difluoromethyl)pyrimidin-5-yl)-6-morpholino-1,3,5-triazin-2-yl)piperazin-1-yl)methyl)azetidin-1-yl)-6-methylhept-5-ene-1,4-dione] | 33 nM

The next compounds have a lower IC50 than those just listed; values first:

Row | IC50 | Compound
12 | 31 nM | CC(C)=CC(=O)CCCC(=O)N1CCC(C(=O)N2CCN(c3nc(-c4cnc(N)nc4C(F)F)nc(N4CCOCC4)n3)CC2)CC1 [Compound 69, 1-(4-(4-(4-(2-amino-4-(difluoromethyl)pyrimidin-5-yl)-6-morpholino-1,3,5-triazin-2-yl)piperazine-1-carbonyl)piperidin-1-yl)-7-methyloct-6-ene-1,5-dione]
13 | 24 nM | CC(C)=CC(=O)CCC(=O)N1CC[C@H](C(=O)N2CCN(c3nc(-c4cnc(N)nc4C(F)F)nc(N4CCOCC4)n3)CC2)C1 [Compound 81, (S)-1-(3-(4-(4-(2-amino-4-(difluoromethyl)pyrimidin-5-yl)-6-morpholino-1,3,5-triazin-2-yl)piperazine-1-carbonyl)pyrrolidin-1-yl)-6-methylhept-5-ene-1,4-dione]
14 | 11 nM | CC(C)=CC(=O)CCCC(=O)N1CC[C@H](C(=O)N2CCN(c3nc(-c4cnc(N)nc4C(F)F)nc(N4CCOCC4)n3)CC2)C1 [Compound 84, (S)-1-(3-(4-(4-(2-amino-4-(difluoromethyl)pyrimidin-5-yl)-6-morpholino-1,3,5-triazin-2-yl)piperazine-1-carbonyl)pyrrolidin-1-yl)-7-methyloct-6-ene-1,5-dione]
15 | 17 nM | CC(C)=CC(=O)CCC(=O)N1CC[C@@H](C(=O)N2CCN(c3nc(-c4cnc(N)nc4C(F)F)nc(N4CCOCC4)n3)CC2)C1 [Compound 86, (R)-1-(3-(4-(4-(2-amino-4-(difluoromethyl)pyrimidin-5-yl)-6-morpholino-1,3,5-triazin-2-yl)piperazine-1-carbonyl)pyrrolidin-1-yl)-6-methylhept-5-ene-1,4-dione]
16 | 6.7 nM | CC(C)=CC(=O)CCCC(=O)N1CC[C@@H](C(=O)N2CCN(c3nc(-c4cnc(N)nc4C(F)F)nc(N4CCOCC4)n3)CC2)C1 [Compound 89, (R)-1-(3-(4-(4-(2-amino-4-(difluoromethyl)pyrimidin-5-yl)-6-morpholino-1,3,5-triazin-2-yl)piperazine-1-carbonyl)pyrrolidin-1-yl)-7-methyloct-6-ene-1,5-dione]
17 | 12 nM | CC(C)=CC(=O)CCCC(=O)N1CC(C(=O)N2CCN(c3nc(-c4cnc(N)nc4C(F)F)nc(N4CCOCC4)n3)CC2)C1 [Compound 94, 1-(3-(4-(4-(2-amino-4-(difluoromethyl)pyrimidin-5-yl)-6-morpholino-1,3,5-triazin-2-yl)piperazine-1-carbonyl)azetidin-1-yl)-7-methyloct-6-ene-1,5-dione]
18 | 17 nM | CC(C)=CC(=O)CCCC(=O)N1CC(CN2CCN(c3nc(-c4cnc(N)nc4C(F)F)nc(N4CCOCC4)n3)CC2)C1 [Compound 97, 1-(3-((4-(4-(2-amino-4-(difluoromethyl)pyrimidin-5-yl)-6-morpholino-1,3,5-triazin-2-yl)piperazin-1-yl)methyl)azetidin-1-yl)-7-methyloct-6-ene-1,5-dione]
